# Source: paper PMC10244465, “Native American ataxia medicines rescue ataxia-linked mutant potassium channel activity via binding to the voltage sensing domain” (Nature Communications, 2023)
# Like-named read-outs stand apart in the source and are kept apart here.
# Experiments:
# [1] = target: T1, wild-type human Kv1.2 (Homo sapiens, UniProt P16389); assay: Two-electrode voltage clamp of oocytes expressing wild-type Kv1.2; assay type: cell-based
# T1 construct: expressed in transfected cells; host or cells: Xenopus laevis oocytes injected with cRNA (pTLNx vector)
# T1 sequence (P16389 whole entry): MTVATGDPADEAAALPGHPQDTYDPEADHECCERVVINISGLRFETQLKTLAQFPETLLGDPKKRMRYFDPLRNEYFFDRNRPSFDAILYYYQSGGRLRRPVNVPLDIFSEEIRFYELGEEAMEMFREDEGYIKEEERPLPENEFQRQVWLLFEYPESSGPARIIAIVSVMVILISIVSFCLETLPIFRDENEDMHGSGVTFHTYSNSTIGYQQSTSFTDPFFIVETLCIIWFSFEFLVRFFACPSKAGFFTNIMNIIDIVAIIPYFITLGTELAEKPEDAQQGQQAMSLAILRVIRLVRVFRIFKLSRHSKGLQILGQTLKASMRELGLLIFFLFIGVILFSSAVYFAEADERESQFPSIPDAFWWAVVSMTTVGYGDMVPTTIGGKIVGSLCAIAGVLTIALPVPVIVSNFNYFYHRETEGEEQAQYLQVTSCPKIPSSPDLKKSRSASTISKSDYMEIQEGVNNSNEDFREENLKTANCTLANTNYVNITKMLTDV
# Method: We therefore first tested for activity of extracts (diluted 1:50 in bath solution to equal 5 mg plant solid starting material per ml) of each of the three plants on wild-type human Kv1.1 and closely related Kv1.2 expressed in Xenopus laevis oocytes, using manual two-electrode voltage clamp (TEVC). Strikingly, all three extracts altered Kv1 channel activity. […] Pacific ninebark (roots or leaves) had similar effects on Kv1.1 but negligible effects on Kv1.2.
# We purchased live Urtica dioica (Common Nettle) from Crimson Sage Nursery (Orleans, CA, USA), cultivated it in Irvine CA, collected the aerial portions (primarily leaves) and then froze them until the day of extraction. We purchased Physocarpus capitatus (Pacific ninebark) live whole plant from Ozark Wildflower Company (Jasper, AR, USA) and separated the roots and aerial parts before extraction of each. We homogenized plant samples using a bead mill with porcelain beads in batches in 50 ml tubes (Omni International, Kennesaw, GA, United States). We purchased certified organic tree bark powders from Mountain Rose Herbs (Eugene, OR, USA) and dry raw Sophora japonica (fine pellets) from Teriya (People’s Republic of China). We purchased bladderwrack kelp extract capsules from Terra Vita (Brampton, Ontario, Canada) and discarded the outer capsule before extraction. We resuspended all plant powders and homogenates in 80% methanol/20% water (100 ml per 5 g solid) and then incubated for 48 h at room temperature, occasionally inverting the bottles to resuspend the extracts. We next filtered the extracts through Whatman filter paper #1 (Whatman, Maidstone, UK), and then removed the methanol using evaporation in a fume hood for 24–48 h at room temperature. We next centrifuged extracts for 10 min at 15 °C, 4000 RCF to remove the remaining particulate matter, followed by storage at −20 °C. On the day of electrophysiological recording, we thawed the extracts and diluted them 1:50 in bath solution (see below), to equal 5 mg plant solid starting material per ml, immediately before use.
# Wild-type and mutant Kv1 cDNAs were generated (Genscript, Piscataway, NJ) in the pTLNx expression vector. […]
# We performed TEVC at room temperature using an OC-725C amplifier (Warner Instruments, Hamden, CT) and pClamp10 software (Molecular Devices, Sunnyvale, CA) 2 days after cRNA injection as described in the section above. […] We recorded currents in response to voltage pulses between −80 mV and +40 mV at 10 or 20 mV intervals from a holding potential of −80 mV, to yield current-voltage relationships and examine activation kinetics. To calculate the voltage dependence of activation (V0.5), tail currents were recorded at a voltage pulse of −50 mV immediately following prepulse voltages between −80 mV and +40 mV. […]
# [2] = target: T2, wild-type human Kv1.1 (Homo sapiens, UniProt Q09470); assay: Two-electrode voltage clamp of oocytes expressing wild-type Kv1.1; assay type: cell-based; details: for shift of midpoint voltage-dependence of activation (V0.5 act): 100 µM; for effect on Kv1.1 activity: compound 100 µM; for EM (unclamped oocyte membrane potential) / Slope / V0.5 Normalized tail current: in presence of 100 µM compound
# T2 construct: expressed in transfected cells; host or cells: Xenopus laevis oocytes injected with cRNA (pTLNx vector)
# T2 sequence (Q09470 whole entry): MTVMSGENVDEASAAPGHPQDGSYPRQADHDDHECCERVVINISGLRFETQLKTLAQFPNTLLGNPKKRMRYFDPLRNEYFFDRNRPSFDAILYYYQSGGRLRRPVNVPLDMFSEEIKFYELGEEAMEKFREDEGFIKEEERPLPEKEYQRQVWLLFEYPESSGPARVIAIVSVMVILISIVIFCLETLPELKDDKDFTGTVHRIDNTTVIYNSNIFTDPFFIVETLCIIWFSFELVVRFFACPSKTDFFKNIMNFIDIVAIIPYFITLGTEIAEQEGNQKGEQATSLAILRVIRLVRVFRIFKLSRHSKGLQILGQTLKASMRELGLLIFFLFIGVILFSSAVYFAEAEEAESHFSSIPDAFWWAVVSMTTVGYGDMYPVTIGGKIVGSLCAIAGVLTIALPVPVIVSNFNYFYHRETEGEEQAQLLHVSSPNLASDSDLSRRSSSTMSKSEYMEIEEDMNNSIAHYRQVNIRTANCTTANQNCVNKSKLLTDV
# Source text: Wild-type and mutant Kv1 cDNAs were generated (Genscript, Piscataway, NJ) in the pTLNx expression vector. As previously described, we generated cRNA transcripts encoding human Kv1.1 (wild-type and mutant) and Kv1.2, by in vitro transcription using the mMessage mMachine kit (Thermo Fisher Scientific), after vector linearization, from cDNA sub-cloned into plasmids (pTLNx) incorporating Xenopus laevis β-globin 5’ and 3’ UTRs flanking the coding region to enhance translation and cRNA stability. We injected defolliculated stage V and VI Xenopus laevis oocytes (Xenoocyte, Dexter, MI, US) with Kv1 cRNAs (1–5 ng). We incubated the oocytes at 16 °C in ND96 oocyte storage solution containing penicillin and streptomycin, with daily washing, for 2 days prior to two-electrode voltage-clamp (TEVC) recording.
# We performed TEVC at room temperature using an OC-725C amplifier (Warner Instruments, Hamden, CT) and pClamp10 software (Molecular Devices, Sunnyvale, CA) 2 days after cRNA injection as described in the section above. For recording, oocytes we placed in a small-volume oocyte bath (Warner) and viewed with a dissection microscope. We sourced chemicals from Sigma. We studied effects of plant extracts and of compounds, solubilized directly in bath solution (in mM): 96 NaCl, 4 KCl, 1 MgCl2, 1 CaCl2, 10 HEPES (pH 7.6). We introduced extracts or compounds into the oocyte recording bath by gravity perfusion at a constant flow of 1 ml per minute for 3 min prior to recording. Pipettes were of 1–2 MΩ resistance when filled with 3 M KCl. We recorded currents in response to voltage pulses between −80 mV and +40 mV at 10 or 20 mV intervals from a holding potential of −80 mV, to yield current-voltage relationships and examine activation kinetics. To calculate the voltage dependence of activation (V0.5), tail currents were recorded at a voltage pulse of −50 mV immediately following prepulse voltages between −80 mV and +40 mV. We analyzed data using Clampfit (Molecular Devices) and Graphpad Prism software (GraphPad, San Diego, CA, USA), stating values as mean ± SEM. We plotted raw or normalized tail currents vs. prepulse voltage and fitted with a single Boltzmann function:1 g=(A1−A2)/1+exp[V1/2−V/Vs]y+A2 where g is the normalized tail conductance, A1 is the initial value at -∞, A2 is the final value at +∞, V1/2 is the half-maximal voltage of activation and Vs the slope factor.
# [3] = dose response, Fig. 4, read-out: EC50 for ΔV0.5activation
Compound,"effect on Kv1.2 ([1]; compound dose response, Fig. 4a)",shift of midpoint voltage-dependence of activation (V0.5 act) [2] [mV],"EC50 ([2]; EC50 for hyperpolarization of EM, oocytes expressing wild-type Kv1.1) [nM]","EC50 ([2]; EC50 for peak current augmentation, at −40 mV, Fig. 10) [nM]","EC50 ([2]; EC50 for ΔV0.5activation, dose response, Fig. 4) [nM]",lowest concentration that begins to hyperpolarize the resting membrane potential ([2]; Kv1.1-expressing oocytes) [nM],effect on Kv1.1 activity [2],"maximal shift in V0.5activation ([2]; dose response, Fig. 4a) [mV]",EM (unclamped oocyte membrane potential) [2] [mV],Slope [2] [mV],V0.5 Normalized tail current [2] [mV],"EC50 [1, 3] [nM]","EC50 [2, 3] [nM]"
O=C(O)c1cc(O)c(O)c(O)c1 [gallic acid],relatively insensitive,−21.0 ± 2.5,18 ± 6,379 ± 28,54 ± 10,100,highly efficacious Kv1.1 channel openers,−20,-49.60 ± 0.91,12.10 ± 2.32,-37.17 ± 2.59,,
tannic acid,,−25.6 ± 2.6,,,,,highly efficacious Kv1.1 channel openers,,-54.40 ± 1.23,13.67 ± 2.01,-44.95 ± 2.49,253 ± 10,19 ± 1.5
